Legend:
[1] = target: FGFR3 (SEQ ID NO: 5, amino acids 449-759) (Homo sapiens (Human), UniProt P22607); experiment: LC/MS FGFR3 kobs assay (covalent protein modification); type: binding; details: 500 nM FGFR3, 3 μM compound
In short: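 The observed rate constant kobs comes from an exponential decay fit of percent unmodified kinase over time. Covalent modification was quantified by Q-TOF LC/MS of formic acid-quenched samples, normalized against DMSO controls.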

[2] = target: phosphorylated FGFR3 (SEQ ID NO: 5, amino acids 449 to 759) (Homo sapiens (Human), UniProt P22607); experiment: FGFR enzyme binding assay (HTRF tracer displacement), FGFR3; details: 5 nM phosphorylated FGFR3, average of multiple determinations if made
phosphorylated FGFR3 (SEQ ID NO: 5, amino acids 449 to 759), sequence (P22607 449-759): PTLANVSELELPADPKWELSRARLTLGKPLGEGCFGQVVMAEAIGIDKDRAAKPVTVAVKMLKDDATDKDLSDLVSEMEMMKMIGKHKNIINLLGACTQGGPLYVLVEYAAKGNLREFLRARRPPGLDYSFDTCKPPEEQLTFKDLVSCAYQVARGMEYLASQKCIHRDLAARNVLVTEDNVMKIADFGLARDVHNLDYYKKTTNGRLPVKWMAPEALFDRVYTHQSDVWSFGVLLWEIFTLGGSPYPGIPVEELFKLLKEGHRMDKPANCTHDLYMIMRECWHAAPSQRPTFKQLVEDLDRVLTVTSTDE
In short: (§1)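 Compounds were tested for displacement of a tracer from human FGFR kinase in a time-resolved FRET binding format. After 60 minutes at 22° C, signal was read at two wavelengths and converted to percent of control, normalised between untreated wells and 1 μM reference inhibitor.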

[3] = target: T1, HEK-293 cells transfected with dox-inducible human wild type FGFR3 (Homo sapiens (Human), UniProt P22607); experiment: FGFR3 pFGFR cell assay (ELISA); type: cell-based; details: HEK-293 dox-inducible FGFR3, 1 hour compound, 100 ng/ml FGF-acidic
T1 sequence (P22607 23-806): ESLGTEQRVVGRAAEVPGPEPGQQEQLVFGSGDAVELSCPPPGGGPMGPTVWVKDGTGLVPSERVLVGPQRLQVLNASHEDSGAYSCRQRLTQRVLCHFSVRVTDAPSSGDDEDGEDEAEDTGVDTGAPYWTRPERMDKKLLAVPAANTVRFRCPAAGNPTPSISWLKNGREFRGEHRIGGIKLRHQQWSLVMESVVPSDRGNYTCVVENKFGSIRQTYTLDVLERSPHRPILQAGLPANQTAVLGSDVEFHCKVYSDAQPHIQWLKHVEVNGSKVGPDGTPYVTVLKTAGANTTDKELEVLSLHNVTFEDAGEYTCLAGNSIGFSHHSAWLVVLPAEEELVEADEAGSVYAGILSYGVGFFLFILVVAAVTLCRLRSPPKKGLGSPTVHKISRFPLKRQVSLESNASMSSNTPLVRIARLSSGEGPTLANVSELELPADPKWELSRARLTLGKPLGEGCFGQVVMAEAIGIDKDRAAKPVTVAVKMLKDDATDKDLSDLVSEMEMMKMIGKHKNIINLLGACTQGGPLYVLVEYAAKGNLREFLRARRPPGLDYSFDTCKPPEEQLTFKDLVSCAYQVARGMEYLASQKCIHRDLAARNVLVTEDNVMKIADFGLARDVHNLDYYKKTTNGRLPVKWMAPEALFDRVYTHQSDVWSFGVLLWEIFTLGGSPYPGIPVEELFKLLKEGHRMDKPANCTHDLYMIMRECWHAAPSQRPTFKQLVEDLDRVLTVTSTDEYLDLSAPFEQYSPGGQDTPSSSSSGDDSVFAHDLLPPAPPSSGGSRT
Procedure: FGFR3 pFGFR Cell Assay: • HEK-293 cells transfected with dox-inducible human wild type FGFR3 (SEQ ID NO: 5) were plated in a collagen or poly-D-lysine coated 96 well flat bottom plates at 4×10^5 cells/well in complete DMEM medium containing 10% FBS and 1 μg/ml doxycycline and allowed to attach for 24 h at 37° C., 5% CO2. Cells were treated with compound using 1:3 serial dilutions with a top final concentration of 5 μM. Compound was incubated on cells for 1 hour at 37° C., 5% CO2. Cells were then stimulated with a final concentration of 100 ng/ml human FGF-acidic for 5 minutes at 37° C., 5% CO2. Medium was removed and cells were lysed with lysis buffer containing phosphatase and protease inhibitors. Phospho FGFR3 was measured by ELISA (R&D Systems cat DYC2719). The ELISA captures total FGFR3 and detects total phospho tyrosine. Optical density was measured for each well using a Versamax reader at a wavelength of 450 nm. 100 POC was determined using no test compounds and 0 POC was determined using a control compound. The POC values were fit to a 4-parameter logistic curve as a function of the concentration of the compound, and the IC50 value is the point where the curve crosses 50 POC.

[4] = target: recombinant human FGFR2 cytoplasmic domain (amino acids 403-822) (Homo sapiens (Human), UniProt P21802); experiment: FGFR2 enzyme activity assay (LanthaScreen TR-FRET); type: biochemical; details: 15 μM ATP, 20 min incubation at 22° C., average of multiple determinations if made, read-out: FGFR2 Enz FRET IC50
recombinant human FGFR2 cytoplasmic domain (amino acids 403-822), sequence (P21802 402-821): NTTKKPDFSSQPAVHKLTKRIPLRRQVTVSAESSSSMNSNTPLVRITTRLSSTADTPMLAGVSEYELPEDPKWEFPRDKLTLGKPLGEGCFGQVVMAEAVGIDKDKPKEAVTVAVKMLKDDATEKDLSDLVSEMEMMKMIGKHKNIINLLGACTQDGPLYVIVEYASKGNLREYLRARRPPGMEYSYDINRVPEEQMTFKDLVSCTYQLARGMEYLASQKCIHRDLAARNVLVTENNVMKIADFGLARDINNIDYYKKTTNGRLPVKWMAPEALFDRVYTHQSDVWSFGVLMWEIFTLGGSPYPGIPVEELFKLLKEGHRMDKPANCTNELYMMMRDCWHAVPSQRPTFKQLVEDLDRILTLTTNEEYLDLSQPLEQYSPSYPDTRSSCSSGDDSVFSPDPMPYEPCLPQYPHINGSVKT
In short: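 His-tagged FGFR2 cytoplasmic domain ([…]) with 100 nM Alexa Fluor 647-poly-GT peptide and 15 μM ATP in HEPES/MgCl2/Triton buffer, pH 7.5, 2% DMSO, 20 min at 22 °C. EDTA-quenched, Eu-PY20 antibody added, TR-FRET read after 60 min.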

[5] = target: recombinant human FGFR3 (amino acids R397-T806) (Homo sapiens (Human), UniProt P22607); experiment: FGFR3 enzyme activity assay (LanthaScreen TR-FRET); type: biochemical; details: 25 μM ATP, 10 min incubation at 22° C., average of multiple determinations if made, read-out: FGFR3 Enz FRET IC50
recombinant human FGFR3 (amino acids R397-T806), sequence (P22607 397-806): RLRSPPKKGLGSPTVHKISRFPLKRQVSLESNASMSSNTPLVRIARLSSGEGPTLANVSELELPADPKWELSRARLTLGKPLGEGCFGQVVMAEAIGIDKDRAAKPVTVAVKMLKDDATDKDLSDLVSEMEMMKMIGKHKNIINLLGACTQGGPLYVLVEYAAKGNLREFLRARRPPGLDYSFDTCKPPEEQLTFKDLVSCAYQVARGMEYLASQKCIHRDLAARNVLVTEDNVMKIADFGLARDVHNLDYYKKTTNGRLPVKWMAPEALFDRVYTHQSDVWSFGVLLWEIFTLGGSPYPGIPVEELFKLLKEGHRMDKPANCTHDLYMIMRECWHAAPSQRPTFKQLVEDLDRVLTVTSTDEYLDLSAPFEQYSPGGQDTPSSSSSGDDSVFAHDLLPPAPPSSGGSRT
In short: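 GST-HIS6-tagged human FGFR3 (R397-T806) was reacted with 100 nM Alexa Fluor 647-Poly-GT substrate and 25 μM ATP plus compound in HEPES/MgCl2/Triton buffer, pH 7.5, 2% DMSO, for 10 min at 22 °C.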

[6] = target: HEK-293 cells transfected with dox-inducible human wild type FGFR1 (Homo sapiens (Human), UniProt P11362); experiment: FGFR1 pERK cell assay; type: cell-based; details: HEK-293 dox-inducible FGFR1, 1 hour compound, 100 ng/ml FGF-acidic; maximum concentration 5 μM
HEK-293 cells transfected with dox-inducible human wild type FGFR1, sequence (P11362 22-822): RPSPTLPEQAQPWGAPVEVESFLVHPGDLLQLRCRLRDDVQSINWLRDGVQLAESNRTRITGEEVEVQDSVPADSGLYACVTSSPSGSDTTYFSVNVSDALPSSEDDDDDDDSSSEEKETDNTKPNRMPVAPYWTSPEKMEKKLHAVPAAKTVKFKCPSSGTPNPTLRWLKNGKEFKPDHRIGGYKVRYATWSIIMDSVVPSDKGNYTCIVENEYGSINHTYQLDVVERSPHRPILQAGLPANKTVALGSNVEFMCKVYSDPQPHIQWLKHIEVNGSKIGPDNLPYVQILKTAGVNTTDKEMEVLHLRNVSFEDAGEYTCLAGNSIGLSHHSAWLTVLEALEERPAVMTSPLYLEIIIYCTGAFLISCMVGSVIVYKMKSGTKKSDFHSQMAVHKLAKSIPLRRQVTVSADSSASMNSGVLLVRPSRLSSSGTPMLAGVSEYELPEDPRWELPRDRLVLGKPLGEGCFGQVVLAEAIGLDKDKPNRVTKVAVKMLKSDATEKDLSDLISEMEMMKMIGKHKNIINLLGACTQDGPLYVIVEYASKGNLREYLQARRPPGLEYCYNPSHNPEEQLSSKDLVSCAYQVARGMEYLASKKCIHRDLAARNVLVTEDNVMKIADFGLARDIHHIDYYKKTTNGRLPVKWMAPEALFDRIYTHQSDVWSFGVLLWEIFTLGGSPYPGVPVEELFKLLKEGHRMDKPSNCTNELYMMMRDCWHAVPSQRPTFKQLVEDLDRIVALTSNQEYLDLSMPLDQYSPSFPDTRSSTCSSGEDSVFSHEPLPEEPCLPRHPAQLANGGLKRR
Procedure: (§2) FGFR1 pERK Cell Assay: • HEK-293 cells transfected with doxycycline(dox)-inducible human wild type FGFR1 (SEQ ID NO: 1) were plated in a collagen or poly-D-lysine coated 96 well flat bottom plates at 4×10^5 cells/well in complete Dulbecco's Modified Eagle Medium (DMEM) containing 10% FBS and 1 μg/ml doxycycline and allowed to attach for 24 h at 37° C., 5% CO2. Cells were treated with compound using 1:3 serial dilutions with a maximum final concentration of 5 μM. Compound was incubated on cells for 1 hour at 37° C., 5% CO2. Cells were then stimulated with a final concentration of 100 ng/ml human FGF-acidic (R&D Systems Cat number 232-FA/CF) for 5 minutes at 37° C., 5% CO2. Medium was removed, and cells were lysed with lysis buffer containing phosphatase and protease inhibitors. Phospho ERK1/2 was measured using the Meso Scale Discovery sandwich assay (Meso Scale Discovery cat. no. K151DWD). The assay captures phospho ERK1/2 and detects with a sulfo-tagged total ERK1/2 antibody. The chemiluminescent signal was read on the Sector Imager Plate reader. 100 POC was determined using no test compound and 0 POC was determined using a control compound. The POC values were fit to a 4-parameter logistic curve as a function of the concentration of the compound, and the IC50 value is the point where the curve crosses 50 POC.

[7] = target: T1, HEK-293 cells transfected with dox-inducible human wild type FGFR3; experiment: FGFR3 pERK cell assay; type: cell-based; details: HEK-293 dox-inducible FGFR3, 1 hour compound, 100 ng/ml FGF-acidic; maximum concentration 5 μM
Procedure: as §2, with “FGFR3 pERK” for “FGFR1 pERK”, “with dox-inducible” for “with doxycycline(dox)-inducible”, “type FGFR3” for “type FGFR1”, “NO: 5)” for “NO: 1)”, “complete DMEM medium” for “complete Dulbecco's Modified Eagle Medium (DMEM)”, “test compounds” for “test compound”

[8] = target: dephosphorylated FGFR1 (SEQ ID NO: 1, amino acids 458 to 765) (Homo sapiens (Human), UniProt P11362); experiment: FGFR enzyme binding assay (HTRF tracer displacement), FGFR1; details: 5 nM dephosphorylated FGFR1, average of multiple determinations if made
dephosphorylated FGFR1 (SEQ ID NO: 1, amino acids 458 to 765), sequence (P11362 458-765): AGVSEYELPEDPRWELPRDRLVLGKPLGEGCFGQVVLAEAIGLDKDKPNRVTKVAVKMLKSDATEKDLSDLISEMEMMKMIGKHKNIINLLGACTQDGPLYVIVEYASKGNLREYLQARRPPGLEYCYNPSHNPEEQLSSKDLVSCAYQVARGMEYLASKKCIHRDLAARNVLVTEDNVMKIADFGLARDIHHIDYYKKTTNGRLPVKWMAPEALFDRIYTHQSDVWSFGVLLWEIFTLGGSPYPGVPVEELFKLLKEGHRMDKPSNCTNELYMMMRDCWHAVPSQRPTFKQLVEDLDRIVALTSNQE
In short: as §1

[9] = target: recombinant human FGFR1 catalytic domain (amino acids 308-731) (Homo sapiens (Human), UniProt P11362); experiment: FGFR1 enzyme activity assay (LanthaScreen TR-FRET); type: biochemical; details: 20 min incubation at 22° C., average of multiple determinations if made, read-out: FGFR1 Enz FRET IC50
recombinant human FGFR1 catalytic domain (amino acids 308-731), sequence (P11362 other isoform, or with tags, fused parts or gaps): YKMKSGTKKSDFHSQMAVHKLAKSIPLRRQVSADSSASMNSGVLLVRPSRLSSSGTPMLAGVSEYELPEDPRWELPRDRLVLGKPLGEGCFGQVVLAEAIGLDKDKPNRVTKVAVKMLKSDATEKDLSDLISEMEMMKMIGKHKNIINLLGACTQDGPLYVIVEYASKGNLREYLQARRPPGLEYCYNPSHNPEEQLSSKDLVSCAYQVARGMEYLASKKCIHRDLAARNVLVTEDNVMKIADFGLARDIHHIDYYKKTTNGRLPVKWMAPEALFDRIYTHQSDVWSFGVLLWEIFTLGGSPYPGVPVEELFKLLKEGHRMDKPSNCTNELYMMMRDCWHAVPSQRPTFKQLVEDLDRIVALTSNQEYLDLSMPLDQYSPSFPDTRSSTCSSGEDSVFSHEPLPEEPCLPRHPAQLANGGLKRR
In short: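 His-tagged FGFR1 kinase domain with 100 nM Alexa Fluor 647-poly-GT peptide and ATP in pH 7.5 HEPES/MgCl2 buffer with 2% DMSO, 20 min at 22 °C. Quenched with EDTA plus 2 nM Eu-PY20 antibody and read after 60 min. IC50 comes from a 4-parameter fit of percent of control.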

[10] = target: FGFR1 (SEQ ID NO: 1, amino acids 458-765) (Homo sapiens (Human), UniProt P11362); experiment: LC/MS FGFR1 kobs assay (covalent protein modification); type: binding; details: 500 nM FGFR1, 3 μM compound
FGFR1 (SEQ ID NO: 1, amino acids 458-765), sequence (P11362 458-765): as the sequence (P11362 458-765) above
In short: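 Covalent labeling of FGFR1 kinase domain (aa 458-765) tracked over time by intact-protein LC/MS after formic acid quench. kobs derived by fitting DMSO-normalized percent unmodified FGFR1 to an exponential decay model.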

FGFR3 (SEQ ID NO: 5, amino acids 449-759), sequence (P22607 449-759): as the sequence (P22607 449-759) above

FGFR3 Enz kobs [1] [min⁻¹] | IC50 [2] [nM] | IC50 [3] [nM] | IC50 [4] [nM] | IC50 [5] [nM] | SMILES | also measured
0.00231 | 32 | 242 | 3 | 3 | C=CC(=O)N1CCC(C(=O)N2CCC(n3cc(-c4cc(OC)c5c(C#N)cnn5c4)cn3)CC2)CC1 [Example 12, 6-(1-(1-(1-acryloylpiperidine-4-carbonyl)piperidin-4-yl)-1H-pyrazol-4-yl)-4-methoxypyrazolo[1,5-a]pyridine-3-carbonitrile] | –
– | – | 20 | – | – | C=CC(=O)Nc1ccc(S(=O)(=O)N2CCC(n3cc(-c4cc(OC)c5c(C#N)cnn5c4)cn3)CC2)cc1 [Example 49, N-(4-((4-(4-(3-cyano-4-methoxypyrazolo[1,5-a]pyridin-6-yl)-1H-pyrazol-1-yl)piperidin-1-yl)sulfonyl)phenyl)acryl-amide (2,2,2-trifluoroacetate)] | –
– | – | – | – | – | C=C(F)C(=O)N1CC(C(=O)N2CCC(n3cc(-c4cc(OC)c5c(C#N)cnn5c4)cn3)CC2)C1 [Example 140, 6-(1-(1-(1-(2-fluoroacryloyl)azet-idine-3-carbonyl)piperidin-4-yl)-1H-pyrazol-4-yl)-4-methoxypyrazolo [1,5-a]pyridine-3-carbonitrile] | IC50 [6]: 206 nM; IC50 [7]: 105 nM
– | – | 351 | – | – | COc1cc(-c2cnn(C3CN(CC4CN(C(=O)/C=C/CN(C)C)C4)C3)c2)cn2ncc(C#N)c12 [Example 148] | –
– | – | 2320 | – | – | COc1cc(-c2cnn(C3CN(C(=O)C4CN(C(=O)/C=C/CN(C)C)C4)C3)c2)cn2ncc(C#N)c12 [Example 150] | –
0.00177 | 48 | – | 15 | 14 | C=CC(=O)N1CCC(NC(=O)c2ccc(-c3cc(OC)c4c(C#N)cnn4c3)cc2)CC1 [Example 166, N-(1-acryloylpiperidin-4-yl)-4-(3-cyano-4-methoxypyrazolo [1,5-a]pyridin-6-yl)benzamide] | IC50 [8]: 129 nM; IC50 [9]: 61 nM; FGFR1 Enz kobs [10]: 0.00032 min⁻¹
0.00039 | 192 | – | 18 | 17 | C=CC(=O)NC1CCC(NC(=O)c2ccc(-c3cc(OC)c4c(C#N)cnn4c3)cc2)CC1 (centres unmarked) [Example 167, N-(4-acrylamido-cyclohexyl)-4-(3-cyano-4-methoxypyrazolo [1,5-a]pyridin-6-yl)benzamide] | IC50 [8]: 1120 nM; IC50 [9]: 68 nM; FGFR1 Enz kobs [10]: 0.00004 min⁻¹
0.06081 | 4 | 12 | 5 | 3 | C=CS(=O)(=O)N1CC[C@@H](C(=O)N2CCC(n3cc(-c4cc(OC)c5c(C#N)cnn5c4)cn3)CC2)C1 [Example 185] | –
– | – | 74 | – | – | C=CS(=O)(=O)N[C@H]1CC[C@H](C(=O)N2CCC(n3cc(-c4cc(OC)c5c(C#N)cnn5c4)cn3)CC2)CC1 [Example 187, N-((1r,4r)-4-(4-(4-(3-cyano-4-methoxypyrazolo[1,5-a]pyridin-6-yl)-1H-pyrazol-1-yl)piperidine-1-carbonyl)cyclohexyl) ethenesulfonamide] | –
– | – | – | – | – | C=CS(=O)(=O)N[C@H]1C[C@@H](C(=O)N2CCC(n3cc(-c4cc(OC)c5c(C#N)cnn5c4)cn3)CC2)C1 [Example 193, N-((1s,3s)-3-(4-(4-(3-cyano-4-methoxypyrazolo[1,5-a]pyridin-6-yl)-1H-pyrazol-1-yl)piperidine-1-carbonyl)cyclobutyl) ethenesulfonamide] | IC50 [6]: 328 nM
– | – | – | – | – | C=CS(=O)(=O)N[C@H]1C[C@H](C(=O)N2CCC(n3cc(-c4cc(OC)c5c(C#N)cnn5c4)cn3)CC2)C1 [Example 194, N-((1r,3r)-3-(4-(4-(3-cyano-4-methoxypyrazolo[1,5-a]pyridin-6-yl)-1H-pyrazol-1-yl)piperidine-1-carbonyl)cyclobutyl) ethenesulfonamide] | IC50 [6]: 401 nM
– | – | 26 | – | – | C=CS(=O)(=O)Nc1ccc(C(=O)N2CCC(n3cc(-c4cc(OC)c5c(C#N)cnn5c4)cn3)CC2)cc1 [Example 196, N-(4-(4-(4-(3-cyano-4-methoxypyrazolo[1,5-a]pyridin-6-yl)-1H-pyrazol-1-yl)piperidine-1-carbonyl)phenyl)ethenesulfonamide] | –

SMILES | FGFR3 Enz kobs [1] [min⁻¹] | IC50 [2] [nM] | IC50 [3] [nM] | IC50 [4] [nM] | IC50 [5] [nM] | also measured
C=CS(=O)(=O)N1CC[C@H](C(=O)N2CCC(n3cc(-c4cc(OC)c5c(C#N)cnn5c4)cn3)CC2)C1 [Example 189, (S)-4-methoxy-6-(1-(1-(1-(vinylsulfonyl)pyrrol-idine-3-carbonyl)piperidin-4-yl)-1H-pyrazol-4-yl)pyrazolo[1,5-a]pyridine-3-carbonitrile] | 0.0728 | 3 | 9 | 3 | 4 | –

Source: patent US12180207B2 (ARRAY BIOPHARMA INC., priority 2018, dated 2024)
